EP2266622A2, “Prodrugs containing novel bio-cleavable linkers” (Piramal Life Sciences Limited, priority 2004, dated 2006)
Entries after “also recorded” stand apart in the source; their conditions may differ. Marks after values point to notes of the source that are not given here.

Columns and labels:
Type in all cases: in vivo
[1] = system: minimal muscular or neurological impairment; experiment: Test 1: Acute toxicity, minimal motor impairment (rotorod), mice i.p.; conditions: for Rotorod Toxicity (number of animals exhibiting toxicity/number of animals tested): 300 mg/kg (+); for Rotorod Toxicity: class symbol = dose
Procedure: (§1) Most of the prodrugs and mutual prodrugs of anticonvulsants described in this invention were evaluated at National Institute of Neurological Disorders and Stroke (NINDS), National Institute of Health (NIH), under their Antiepileptic Screening Program (ASP).
(§2) Test 1 is an initial screening for anticonvulsant activity in the Maximal Electroshock Test (MES) and Subcutaneous Metrazol Seizure Threshold Test (scMET) models combined with an initial assessment of toxicity (TOX) in mice via i.p. injection (see further explanation below). The data for each condition is presented as N/F, where N = number of animals protected from seizure and F = number of animals tested. For test of toxicity, N = number of animals displaying toxic effects and F = number of animals tested. Any deaths occurring during the test were recorded.

[2] = system: Neurological toxicity; experiment: Test 2: neurological toxicity, rats p.o.; conditions: 30 mg/kg
Text: (§3) Rats received test compounds orally.

[3] = system: clonic seizures; experiment: Test 1: Subcutaneous Metrazol Seizure Threshold Test (scMET), mice i.p.; conditions: for ScMET: class symbol = dose; for ScMET (number of animal protected/number of animal tested): 300 mg/kg (+)
Procedure: as §1, §2
Subcutaneous Metrazol Seizure Threshold Test (scMET): Subcutaneous injection of the convulsant metrazol produces clonic seizures in laboratory animals. […] Animals were pretreated with various doses of the test compound given by i.p. injection. At the previously determined Time to Peak Effect (TPE) of the test compound, the dose of metrazol which will produce convulsions in 97% of animals (CD97: 85 mg/kg in mice) was injected into a loose fold of skin in the midline of the neck. The animals were placed in isolation cages to minimize stress and observed for the next 30 minutes for the presence or absence of a seizure. An episode of clonic spasms, approximately […], of the fore and/or hind limbs, jaws, or vibrissae is taken as the end point.

[4] = system: MES-induced seizures; experiment: Test 1: Maximal Electroshock Test (MES), mice i.p.; conditions: for MES: class symbol = dose
Procedure: as §1, §2
(§4) Maximal Electroshock Test (MES): The MES is a model for generalized tonic-clonic seizure and provides an indication of a compound's ability to prevent seizure spread when all neuronal circuits in the brain are maximally active. These seizures are highly reproducible and electro-physiologically consistent with human seizures. For all tests based on MES convulsions, 60 Hz of alternating current (50 mA in mice) is delivered for […] by corneal electrodes, which have been primed with an electrolyte solution containing an anesthetic agent (0.5% tetracaine hydrochloride). Mice were tested at various intervals following doses of 30, 100 and 300 mg/kg of test compound given by i.p. injection of a volume of 0.01 mL/g. Other doses can be used if indicated by previously known pharmacology. An animal is considered "protected" from MES-induced seizures upon abolition of the hind-limb tonic extensor component of the seizure.

[5] = system: MES-induced seizures; experiment: Test 2: MES, rats p.o.
Text: as §4, §3

[6] = 100 mg/kg (++), 2 hours after dosing
[7] = at 2 hours after dosing (footnote h)

Row | Compound | toxicity (Test 1, in words) [1] | Rotorod Toxicity (number of animals exhibiting toxicity/number of animals tested) ([1]; 0.5 h) | Rotorod Toxicity ([1]; 4.0 h) | ScMET ([3]; 0.5 h) | ScMET ([3]; 4.0 h) | activity in MES (Test 1, in words) [4] | MES (number of animal protected/number of animal tested) ([4]; 100 mg/kg (++), 4.0 h) | MES (number of animal protected/number of animal tested) ([4]; 300 mg/kg (+), 0.5 h) | MES (number of animal protected/number of animal tested) ([4]; 300 mg/kg (+), 4.0 h) | MES (number of animal protected/number of animal tested) ([5]; 30 mg/kg, 0.50 h) | MES (number of animal protected/number of animal tested) ([5]; 30 mg/kg, 1.00 h) | MES (number of animal protected/number of animal tested) ([5]; 30 mg/kg, 2.00 h) | MES (number of animal protected/number of animal tested) ([5]; 30 mg/kg, 4.00 h) | Rotorod Toxicity ([1]; 0.5 h) | MES ([4]; 0.5 h) | MES ([4]; 4.0 h) | MES (number of animal protected/number of animal tested) [4, 6] | MES [4, 7] | also measured
1 | Nc1nc(NC(=O)OCCSSCCOC(=O)NCC2(CC(=O)O)CCCCC2)nnc1-c1cccc(Cl)c1Cl [I-AA-MPD11] | no or mild toxicity | 1/4 | - (- = no activity or no toxicity at 300 mg/kg) | - (- = no activity or no toxicity at 300 mg/kg) | - (- = no activity or no toxicity at 300 mg/kg) | active in MES | 3/3 | 1/1 | 1/1 | 0/4 | 2/4 | 1/4 | 4/4 |  |  |  |  |  | Toxicity (number of animals exhibiting toxicity/number of animals tested) ([2]; 0.50 h): 0/4; Toxicity (number of animals exhibiting toxicity/number of animals tested) ([2]; 1.00 h): 0/4; Toxicity (number of animals exhibiting toxicity/number of animals tested) ([2]; 2.00 h): 0/4; Toxicity (number of animals exhibiting toxicity/number of animals tested) ([2]; 4.00 h): 0/4
2 | CCOC(=O)CC1(CNC(=O)OCCSSCCOC(=O)NC(=O)[C@H](CC)N2CCCC2=O)CCCCC1 [I-AA-MPD13] |  | 4/4 | - (- = no activity or no toxicity at 300 mg/kg) | + (+ = activity or toxicity at 300 mg/kg) | - (- = no activity or no toxicity at 300 mg/kg) |  |  |  |  |  |  |  |  | + (+ = activity or toxicity at 300 mg/kg) | - (- = no activity or no toxicity at 300 mg/kg) | - (- = no activity or no toxicity at 300 mg/kg) |  |  | ScMET (number of animal protected/number of animal tested) ([3]; 0.5 h): 1/1
3 | CCCC(CCC)C(=O)OCCSSCCOC(=O)Nc1nnc(-c2cccc(Cl)c2Cl)c(N)n1 [I-CA-MPD23] | no or mild toxicity |  | - (- = no activity or no toxicity at 300 mg/kg) | - (- = no activity or no toxicity at 300 mg/kg) | - (- = no activity or no toxicity at 300 mg/kg) | active in MES |  |  | 1/3 |  |  |  |  | - (- = no activity or no toxicity at 300 mg/kg) | - (- = no activity or no toxicity at 300 mg/kg) | + (+ = activity or toxicity at 300 mg/kg) | 1/3 | ++ (++ = activity or toxicity at 100 mg/kg) | MES (number of animal protected/number of animal tested) ([5]; 150 mg/kg, 2.00 h): 4/4; MES (number of animal protected/number of animal tested) ([5]; 150 mg/kg, 4.00 h): 4/4; MES (number of animal protected/number of animal tested) ([5]; 150 mg/kg, 6.00 h): 4/4; MES (number of animal protected/number of animal tested) ([5]; 150 mg/kg, 8.00 h): 4/4
4 | Nc1nc(NC(=O)OCCSSCCOC(=O)c2cccnc2)nnc1-c1cccc(Cl)c1Cl [I-CA-MPD24] | non-toxic; also recorded: no or mild toxicity |  | - (- = no activity or no toxicity at 300 mg/kg) | - (- = no activity or no toxicity at 300 mg/kg) |  | active in both MES and scMET models | 3/3 |  |  | 0/4 | 2/4 | 3/4 | 4/4 | - (- = no activity or no toxicity at 300 mg/kg) | - (- = no activity or no toxicity at 300 mg/kg) | ++ (++ = activity or toxicity at 100 mg/kg) | 3/3 | ++ (++ = activity or toxicity at 100 mg/kg) | activity in scMET (Test 1, in words) [3]: active in both MES and scMET models; ScMET (number of animal protected/number of animal tested) ([3]; 4.0 h): (1/1)^l; MES (number of animal protected/number of animal tested) ([4]; 100 mg/kg (++), 6 hours after dosing): (3/3)^m; MES ([4]; at 6 hours after dosing (footnotes g, m)): ++ (++ = activity or toxicity at 100 mg/kg)
5 | Cl.Nc1nc(NC(=O)OCCSSCCNC(=O)c2cccnc2)nnc1-c1cccc(Cl)c1Cl [I-CA-MPD25] | no or mild toxicity |  | - (- = no activity or no toxicity at 300 mg/kg) | - (- = no activity or no toxicity at 300 mg/kg) | - (- = no activity or no toxicity at 300 mg/kg) | active in MES | 2/3 | (1/1) | 1/1 | 0/4 | 3/4 | 4/4 | 2/4 | - (- = no activity or no toxicity at 300 mg/kg) | + (+ = activity or toxicity at 300 mg/kg) |  |  |  | 
